Experimental data reported in PubChem BioAssay AID248 (DTP/NCI, 2004).
Toxic doses and inconclusive results are not listed. No stated cut-off is given here; in the data, active means T/C of 150% or more; inactive means T/C below 125%.

System: L1210 leukemia ip in BDF1 mice, survival T/C
Assay: NCI In Vivo Anticancer Drug Screen. Data for tumor model L1210 Leukemia (intraperitoneal) in B6D2F1 (BDF1) mice
Details: endpoint: mean survival time, higher = longer survival
Outline: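 Ratio derived from survival: compound-dosed mice over vehicle-dosed mice, all bearing a transplantable tumor.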

[1] = dose: 75.0 mg/kg/injection, schedule: Q01DX001 (ip), vehicle: saline
[2] = dose: 150.0 mg/kg/injection, schedule: Q01DX001 (ip), vehicle: saline
[3] = dose: 100.0 mg/kg/injection, schedule: Q04DX003 (ip), vehicle: saline
[4] = dose: 200.0 mg/kg/injection, schedule: Q04DX003 (ip), vehicle: saline

Measured: T/C

O=c1[nH]c(-c2cccc([N+](=O)[O-])c2)nc2[nH]ncc12
inactive: dose: 25.0 mg/kg/injection, schedule: Q01DX001 (ip), vehicle: Klucel (hydroxypropylcellulose) (HPC) 94 % of control | dose: 50.0 mg/kg/injection, schedule: Q01DX001 (ip), vehicle: Klucel (hydroxypropylcellulose) (HPC) 94 % of control | dose: 100.0 mg/kg/injection, schedule: Q01DX001 (ip), vehicle: Klucel (hydroxypropylcellulose) (HPC) 98 % of control

CCn1c(/C=N/NC(N)=S)cc2ccccc21
inactive: dose: 50.0 mg/kg/injection, schedule: Q01DX001 (ip), vehicle: other 104 % of control | dose: 100.0 mg/kg/injection, schedule: Q01DX001 (ip), vehicle: other 109 % of control | dose: 200.0 mg/kg/injection, schedule: Q01DX001 (ip), vehicle: other 104 % of control | dose: 400.0 mg/kg/injection, schedule: Q01DX001 (ip), vehicle: other 104 % of control

COc1cc(CC(=O)N(C)C)c([N+](=O)[O-])cc1OC
inactive: dose: 100.0 mg/kg/injection, schedule: Q01DX001 (ip), vehicle: saline 87 % of control | dose: 200.0 mg/kg/injection, schedule: Q01DX001 (ip), vehicle: saline 93 % of control | dose: 400.0 mg/kg/injection, schedule: Q01DX001 (ip), vehicle: saline 93 % of control

C[N+]1(C)CCNC(=O)CC1
inactive: [1] 105 % of control | [2] 94 % of control | dose: 300.0 mg/kg/injection, schedule: Q01DX001 (ip), vehicle: saline 105 % of control

OC/C=C\C1(O)CCCCC1
inactive: [1] 98 % of control | [2] 96 % of control

Cc1ccccc1OCC(=O)O
inactive: dose: 50.0 mg/kg/injection, schedule: Q01DX009 (ip), vehicle: saline with Tween-80 107 % of control | dose: 50.0 mg/kg/injection, schedule: Q01DX009 (ip), vehicle: saline 107 % of control | dose: 100.0 mg/kg/injection, schedule: Q01DX009 (ip), vehicle: saline with Tween-80 98 % of control | dose: 100.0 mg/kg/injection, schedule: Q01DX009 (ip), vehicle: saline 98 % of control | dose: 100.0 mg/kg/injection, schedule: Q04DX003 (ip), vehicle: gum acacia 98 % of control | dose: 200.0 mg/kg/injection, schedule: Q01DX009 (ip), vehicle: saline with Tween-80 98 % of control | dose: 200.0 mg/kg/injection, schedule: Q01DX009 (ip), vehicle: saline 98 % of control | dose: 200.0 mg/kg/injection, schedule: Q04DX003 (ip), vehicle: gum acacia 94 % of control | dose: 400.0 mg/kg/injection, schedule: Q04DX003 (ip), vehicle: gum acacia 93 % of control

[Cl][Dy]([Cl])[Cl]
inactive: [3] 103 % of control | [4] 114 % of control

CC(C)(Cc1ccccc1)NC(=O)N(CCCl)N=O
inactive: dose: 31.0 mg/kg/injection, schedule: Q01DX001 (ip), vehicle: other 124 % of control | dose: 1000.0 mg/kg/injection, schedule: Q01DX001 (ip), vehicle: other 111 % of control
active: dose: 62.0 mg/kg/injection, schedule: Q01DX001 (ip), vehicle: other 151 % of control | dose: 250.0 mg/kg/injection, schedule: Q01DX001 (ip), vehicle: other 194 % of control | dose: 375.0 mg/kg/injection, schedule: Q01DX001 (ip), vehicle: other 244 % of control | dose: 500.0 mg/kg/injection, schedule: Q01DX001 (ip), vehicle: other 273 % of control | dose: 750.0 mg/kg/injection, schedule: Q01DX001 (ip), vehicle: other 263 % of control

CC(C)NCCC#N
inactive: [3] 104 % of control | [4] 111 % of control | dose: 400.0 mg/kg/injection, schedule: Q04DX003 (ip), vehicle: saline 108 % of control

O=C(Nc1cccc([N+](=O)[O-])c1)c1ccc(Cl)c(Cl)c1
inactive: dose: 25.0 mg/kg/injection, schedule: Q04DX003 (ip), vehicle: saline with Tween-80 115 % of control | dose: 50.0 mg/kg/injection, schedule: Q04DX003 (ip), vehicle: saline with Tween-80 96 % of control | dose: 100.0 mg/kg/injection, schedule: Q04DX003 (ip), vehicle: saline with Tween-80 99 % of control | dose: 200.0 mg/kg/injection, schedule: Q04DX003 (ip), vehicle: saline with Tween-80 86 % of control | dose: 300.0 mg/kg/injection, schedule: Q04DX003 (ip), vehicle: saline with Tween-80 86 % of control
